By Kd is commonly meant the equilibrium constant for the complex coming apart.

One experiment has as its target T1, FLT3 K663Q (Homo sapiens, UniProt P36888, K663Q).
T1 construct: host or cells: E. coli BL21-derived host (T7 phage) or HEK-293
T1 sequence (P36888 27-993 K663Q): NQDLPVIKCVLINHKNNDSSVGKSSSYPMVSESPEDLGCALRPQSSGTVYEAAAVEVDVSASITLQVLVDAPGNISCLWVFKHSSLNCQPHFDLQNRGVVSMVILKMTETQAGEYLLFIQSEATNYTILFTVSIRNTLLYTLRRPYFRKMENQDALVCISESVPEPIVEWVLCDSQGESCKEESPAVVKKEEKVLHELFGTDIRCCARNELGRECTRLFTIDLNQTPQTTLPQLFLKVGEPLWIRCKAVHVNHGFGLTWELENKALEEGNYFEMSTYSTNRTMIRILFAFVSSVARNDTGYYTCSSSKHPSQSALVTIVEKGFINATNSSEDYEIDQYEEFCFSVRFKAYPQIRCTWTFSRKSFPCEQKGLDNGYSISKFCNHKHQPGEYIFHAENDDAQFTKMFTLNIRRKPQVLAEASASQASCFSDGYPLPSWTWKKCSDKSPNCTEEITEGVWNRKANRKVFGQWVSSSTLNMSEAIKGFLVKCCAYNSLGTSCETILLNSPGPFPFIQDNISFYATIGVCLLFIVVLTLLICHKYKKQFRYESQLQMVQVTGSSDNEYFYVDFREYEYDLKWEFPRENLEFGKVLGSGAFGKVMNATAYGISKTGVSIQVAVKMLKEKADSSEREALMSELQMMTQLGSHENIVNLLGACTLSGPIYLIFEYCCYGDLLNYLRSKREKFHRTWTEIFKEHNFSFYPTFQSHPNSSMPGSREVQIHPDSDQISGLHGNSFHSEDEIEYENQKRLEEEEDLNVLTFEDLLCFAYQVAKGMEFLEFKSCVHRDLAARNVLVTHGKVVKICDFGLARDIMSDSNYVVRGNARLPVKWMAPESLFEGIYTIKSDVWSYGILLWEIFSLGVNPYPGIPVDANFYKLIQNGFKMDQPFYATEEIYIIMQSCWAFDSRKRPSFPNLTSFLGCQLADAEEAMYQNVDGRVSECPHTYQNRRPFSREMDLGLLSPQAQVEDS
Description: DiscoverX KINOMEscan competition binding, FLT3 K663Q. The text has this:
(§1) Kinase binding data were obtained for various exemplary compounds prepared according to Examples 1-24 using the DiscoverX KINOMVIEscan® active site-directed competition binding site-directed assay protocol described below. […] As a result, the data report thermodynamic interaction affinities (Kd values), rather than IC50 values that are dependent on ATP concentrations. The assay uses a DNA-tagged version of the protein kinase, and an immobilized ligand bound to a solid support. Compounds that directly or indirectly prevent kinase binding to the immobilized ligand reduce the amount of kinase captured on the solid support, which is detected using an ultra-sensitive qPCR method. Affinity constants reported from the assay have been reported to be independent of the immobilized ligand used that is coupled to the solid support (See supplemental information in Fabian, M. A. et. al., (2005) Nat. Biotechnol. 23, 329-336; Wodicka, L. M. et. al., (2010) Chem. Biol. 17, 1241-1249.)
(§2) Kinase-tagged T7 phage strains were prepared in an E. coli host derived from the BL21 strain. E. coli were grown to log-phase and infected with T7 phage and incubated with shaking at 32° C. until lysis. The lysates were centrifuged and filtered to remove cell debris. The remaining kinases were produced in HEK-293 cells and subsequently tagged with DNA for qPCR detection. Streptavidin-coated magnetic beads were treated with biotinylated small molecule ligands for 30 minutes at room temperature to generate affinity resins for kinase assays. The liganded beads were blocked with excess biotin and washed with blocking buffer (SeaBlock (Pierce), 1% BSA, 0.05% Tween 20, 1 mM DTT) to remove unbound ligand and to reduce non-specific binding. Binding reactions were assembled by combining kinases, liganded affinity beads, and test compounds in 1× binding buffer (20% SeaBlock, 0.17×PBS, 0.05% Tween 20, 6 mM DTT). Test compounds were prepared as 111× stocks in 100% DMSO. Kds were determined using an 11-point 3-fold compound dilution series with three DMSO control points. All compounds for Kd measurements are distributed by acoustic transfer (non-contact dispensing) in 100% DMSO. The compounds were then diluted directly into the assays such that the final concentration of DMSO was 0.9%. All reactions were performed in polypropylene 384-well plates. Each was a final volume of 0.02 mL. The assay plates were incubated at room temperature with shaking for 1 hour and the affinity beads were washed with wash buffer (1×PBS, 0.05% Tween 20). The beads were then re-suspended in elution buffer (1×PBS, 0.05% Tween 20, 0.5 μM nonbiotinylated affinity ligand) and incubated at room temperature with shaking for 30 minutes. The kinase concentration in the eluates was measured by qPCR.
(§3) Binding constants (Kds) were calculated with a standard dose-response curve using the Hill equation. The Hill Slope was set to −1. Curves were fitted using a non-linear least square fit with the Levenberg-Marquardt algorithm.

The target of another experiment is T2, FLT3 N841I (Homo sapiens, UniProt P36888, N841I).
T2 construct: host or cells: E. coli BL21-derived host (T7 phage) or HEK-293
T2 sequence (P36888 27-993 N841I): T1 sequence (P36888 27-993 K663Q) with Q637K, N815I
Nature of the experiment: DiscoverX KINOMEscan competition binding, FLT3 N841I.
Description: as §1, §2, §3

Structures are written as SMILES. Substitutions are numbered along the chain they refer to.

Turning to `CC1(c2cn3c(-c4cccc(N[C@H]5CNC[C@@H]5F)n4)cnc3cn2)CC1` [Compound 1, N-((3S,4S)-4-fluoropyrrolidin-3-yl)-6-(6-(1-methylcyclopropyl)imidazo[1,2-a]pyrazin-3-yl)pyridin-2-amine], the Kd at FLT3 K663Q stood at 240 pM; on FLT3 N841I, 120 pM.
For `CC1(c2cn3c(-c4cccc(N[C@@H]5CCNC5)n4)cnc3cn2)CC1` [Compound 3, (R)-6-(6-(1-methylcyclopropyl)imidazo[1,2-a]pyrazin-3-yl)-N-(pyrrolidin-3-yl)pyridin-2-amine], the Kd at FLT3 K663Q turned out to be 220 pM; on FLT3 N841I it was 120 pM.
`CC1(c2cn3c(-c4cccc(N[C@H]5CNCC56CC6)n4)cnc3cn2)CC1` [Compound 5, (R)-N-(6-(6-(1-methylcyclopropyl)imidazo[1,2-a]pyrazin-3-yl)pyridin-2-yl)-5-azaspiro[2.4]heptan-7-amine]: the Kd on FLT3 K663Q was 180 pM; on FLT3 N841I it was 91 pM.
Turning to `FC(F)(F)C1(c2cn3c(-c4cccc(N[C@@H]5CCNC5)n4)cnc3cn2)CC1` [Compound 10, (R)-N-(pyrrolidin-3-yl)-6-(6-(1-(trifluoromethyl)cyclopropyl)imidazo[1,2-a]pyrazin-3-yl)pyridin-2-amine], the Kd on FLT3 K663Q was determined as 450 pM; at FLT3 N841I, 290 pM.
With `FC(F)c1cn2c(-c3cccc(N[C@H]4CNC[C@@H]4F)n3)cnc2cn1` [Compound 16, 6-(6-(difluoromethyl)imidazo[1,2-a]pyrazin-3-yl)-N-((3S,4S)-4-fluoropyrrolidin-3-yl)pyridin-2-amine], the Kd came out at 1400 pM on FLT3 K663Q and 650 pM on FLT3 N841I.
`FC(F)c1cn2c(-c3cccc(N[C@H]4CNCC[C@@H]4F)n3)cnc2cn1` [Compound 25, 6-(6-(difluoromethyl)imidazo[1,2-a]pyrazin-3-yl)-N-((3S,4S)-4-fluoropiperidin-3-yl)pyridin-2-amine]: the Kd was determined as 590 pM at FLT3 K663Q and 270 pM at FLT3 N841I.
Turning to `CC(C)(O)c1cn2c(-c3cccc(N[C@@H]4CCCNC4)n3)cnc2cn1` [Compound 30, (R)-2-(3-(6-(piperidin-3-ylamino)pyridin-2-yl)imidazo[1,2-a]pyrazin-6-yl)propan-2-ol], the values for the Kd on FLT3 K663Q and at FLT3 N841I were 830 pM and 3500 pM, respectively.
For the compound `CC(C)(O)c1cn2c(-c3cccc(N[C@H]4CNCC[C@@H]4F)n3)cnc2cn1` [Compound 31, 2-(3-(6-(((3S,4S)-4-fluoropiperidin-3-yl)amino)pyridin-2-yl)imidazo[1,2-a]pyrazin-6-yl)propan-2-ol], the figures for the Kd on FLT3 K663Q and at FLT3 N841I were 2400 pM and 2100 pM, respectively.
`FC(F)(F)COc1cn2c(-c3cccc(N[C@@H]4CCNC4)n3)cnc2cn1` [Compound 38, (R)-N-(pyrrolidin-3-yl)-6-(6-(2,2,2-trifluoroethoxy)imidazo[1,2-a]pyrazin-3-yl)pyridin-2-amine]: the Kd came to 2300 pM at FLT3 K663Q and 520 pM at FLT3 N841I.
As to `F[C@H]1CNC[C@@H]1Nc1cccc(-c2cnc3cnc(C4CC4)cn23)n1` [Compound 50, 6-(6-cyclopropylimidazo[1,2-a]pyrazin-3-yl)-N-((3S,4S)-4-fluoropyrrolidin-3-yl)pyridin-2-amine], the figures for the Kd on FLT3 K663Q and on FLT3 N841I were 390 pM and 250 pM, respectively.
`Cn1cc(-c2cn3c(-c4cccc(N[C@H]5CNC[C@@H]5F)n4)cnc3cn2)cn1` [Compound 52, N-((3S,4S)-4-fluoropyrrolidin-3-yl)-6-(6-(1-methyl-1H-pyrazol-4-yl)imidazo[1,2-a]pyrazin-3-yl)pyridin-2-amine]: the Kd at FLT3 K663Q was determined as 820 pM; at FLT3 N841I, 240 pM.

Values taken from patent US12612410B2 (CHILDREN'S HOSPITAL MEDICAL CENTER, priority 2020, dated 2026).
